How the values were obtained:
Assay type in all cases: cell-based, mouse
[1] = test system: α7 integrin (LacZ reporter in α7βgal+/− myoblasts); experiment: Myoblast α7+/LacZ integrin FDG assay (Burkin assay in myoblasts, 96-well); conditions: α7+/LacZ myoblasts, 96-well
[2] = test system: α7 integrin (LacZ reporter in α7+/LacZ myotubes); experiment: Myotube α7 integrin FDG assay (Burkin assay in myotubes, 96-well); conditions: myotubes
[3] = test system: β-galactosidase in CMV-LacZ C2C12 myotubes; experiment: CMV-LacZ secondary screen in C2C12 myotubes (β-Gal stabilizing assay); conditions: for CMV-LACZ in Myotubes (β-galactosidase activity relative to DMSO): CMV-LacZ C2C12 myotubes, 96-well format; for CMV-LACZ in Myotubes, signal relative to DMSO: C2C12 CMV-LacZ myotubes, fold relative to DMSO
Summary of the method: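 CMV-LacZ C2C12 line (clonal, FDG-screened); myoblasts/myotubes dosed 0.5–40 μM (0.5, 1, 5, 10, 20, 40 μM); n=2 per point; β-gal stabilization read-out.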

SMILES	CMV-LACZ in Myotubes (β-galactosidase activity relative to DMSO) ([3]; 5 uM)	CMV-LACZ in Myotubes (β-galactosidase activity relative to DMSO) ([3]; 10 uM)	CMV-LACZ in Myotubes (β-galactosidase activity relative to DMSO) ([3]; 20 uM)	CMV-LACZ in Myotubes (β-galactosidase activity relative to DMSO) ([3]; 40 uM)	Burkin Assay in Myoblasts, value relative to DMSO ([1]; 0.5 uM)	Burkin Assay in Myoblasts, value relative to DMSO ([1]; 1 uM)	Burkin Assay in Myoblasts, value relative to DMSO ([1]; 5 uM)	Burkin Assay in Myoblasts, value relative to DMSO ([1]; 10 uM)	Burkin Assay in Myoblasts, value relative to DMSO ([1]; 20 uM)	Burkin Assay in Myoblasts, value relative to DMSO ([1]; 40 uM)	Burkin Assay in Myotubes (signal relative to DMSO) ([2]; 0.5 uM)	Burkin Assay in Myotubes (signal relative to DMSO) ([2]; 1 uM)	Burkin Assay in Myotubes (signal relative to DMSO) ([2]; 5 uM)	Burkin Assay in Myotubes (signal relative to DMSO) ([2]; 10 uM)	Burkin Assay in Myotubes (signal relative to DMSO) ([2]; 20 uM)	Burkin Assay in Myotubes (signal relative to DMSO) ([2]; 40 uM)	CMV-LACZ in Myotubes, signal relative to DMSO ([3]; 5 uM)	CMV-LACZ in Myotubes, signal relative to DMSO ([3]; 10 uM)	CMV-LACZ in Myotubes, signal relative to DMSO ([3]; 20 uM)	CMV-LACZ in Myotubes, signal relative to DMSO ([3]; 40 uM)	further results
COCCn1c(=N)c(S(=O)(=O)c2ccc(Br)cc2)cc2c(=O)n3ccccc3nc21 [MLS001141113-01]	1.134	1.383	0.9823	1.913	–	–	–	–	–	–	–	–	–	–	–	–	–	–	–	–	fold induction at 0.5 µM ([1]; Mus musculus, Myoblast, 48 h, 0.5 uM, read-out: Burkin Assay in Myoblasts, value relative to DMSO): 1.23; fold induction at 1 µM ([1]; Mus musculus, Myoblast, 48 h, 1 uM, read-out: Burkin Assay in Myoblasts, value relative to DMSO): 1.06; fold induction at 5 µM ([1]; Mus musculus, Myoblast, 48 h, 5 uM, read-out: Burkin Assay in Myoblasts, value relative to DMSO): 1.08; fold induction at 10 µM ([1]; Mus musculus, Myoblast, 48 h, 10 uM, read-out: Burkin Assay in Myoblasts, value relative to DMSO): 1.07; fold induction at 20 µM ([1]; Mus musculus, Myoblast, 48 h, 20 uM, read-out: Burkin Assay in Myoblasts, value relative to DMSO): 0.915; fold induction at 40 µM ([1]; Mus musculus, Myoblast, 48 h, 40 uM, read-out: Burkin Assay in Myoblasts, value relative to DMSO): 0.56; fold induction at 0.5 µM ([2]; Mus musculus, Myotube, 0.5 uM, read-out: Burkin Assay in Myotubes (signal relative to DMSO)): 1.04; fold induction at 1 µM ([2]; Mus musculus, Myotube, 1 uM, read-out: Burkin Assay in Myotubes (signal relative to DMSO)): 0.854; fold induction at 5 µM ([2]; Mus musculus, Myotube, 5 uM, read-out: Burkin Assay in Myotubes (signal relative to DMSO)): 1.05; fold induction at 10 µM ([2]; Mus musculus, Myotube, 10 uM, read-out: Burkin Assay in Myotubes (signal relative to DMSO)): 0.929; fold induction at 20 µM ([2]; Mus musculus, Myotube, 20 uM, read-out: Burkin Assay in Myotubes (signal relative to DMSO)): 0.887; fold induction at 40 µM ([2]; Mus musculus, Myotube, 40 uM, read-out: Burkin Assay in Myotubes (signal relative to DMSO)): 0.812
COC(=O)c1ccc(C2C(C(=O)c3cc4ccccc4o3)=C(O)C(=O)N2CCN2CCOCC2)cc1 (stereo not shown) [MLS001146463-01]	–	–	–	–	1.026	0.9781	0.9027	0.9293	0.7318	0.8061	0.8827	0.8032	1.216	0.7514	0.8465	0.8424	1.074	0.9392	1.06	1.141	–
Cc1cccc(NC(=O)c2ccc(N3C(=O)C4CCCCC4C3=O)cc2)c1C (stereo not shown) [MLS001147727-01]	–	–	–	–	–	–	–	–	–	–	–	–	–	–	–	–	1.12	0.9069	1.2365	1.1835	Burkin Assay in Myoblasts, signal relative to DMSO ([1]; 0.5 uM): 1.212; Burkin Assay in Myoblasts, signal relative to DMSO ([1]; 1 uM): 1.039; Burkin Assay in Myoblasts, signal relative to DMSO ([1]; 5 uM): 1.029; Burkin Assay in Myoblasts, signal relative to DMSO ([1]; 10 uM): 0.8892; Burkin Assay in Myoblasts, signal relative to DMSO ([1]; 20 uM): 1.128; Burkin Assay in Myoblasts, signal relative to DMSO ([1]; 40 uM): 0.9044; Burkin Assay in Myotubes, α7 integrin LacZ reporter signal relative to DMSO ([2]; 0.5 uM): 0.9937; Burkin Assay in Myotubes, α7 integrin LacZ reporter signal relative to DMSO ([2]; 1 uM): 0.7877; Burkin Assay in Myotubes, α7 integrin LacZ reporter signal relative to DMSO ([2]; 5 uM): 1.101; Burkin Assay in Myotubes, α7 integrin LacZ reporter signal relative to DMSO ([2]; 10 uM): 0.9716; Burkin Assay in Myotubes, α7 integrin LacZ reporter signal relative to DMSO ([2]; 20 uM): 1.11; Burkin Assay in Myotubes, α7 integrin LacZ reporter signal relative to DMSO ([2]; 40 uM): 0.9652
COc1ccc(-c2csc3ncnc(N4CCN(c5ccccc5[N+](=O)[O-])CC4)c23)cc1 [MLS001149811-01]	0.9566	1.048	1.122	1.65	0.6497	0.8888	1.01	1.022	1	0.6172	0.957	0.9993	0.9434	0.9086	0.8456	0.5432	–	–	–	–	–
